In test [1] the target is Aurora kinase A (Homo sapiens) (UniProt O14965). Nature of the test: Inhibition of AurA (unknown origin) at 0.164 uM relative to control.
In test [2] the target is Phosphorylase b kinase gamma catalytic chain, liver/testis isoform (Homo sapiens) (UniProt P15735). Put plainly: Inhibition of PhKg2 (unknown origin) at 0.164 uM relative to control.
Test [3] deals with T1, Serine/threonine-protein kinase DCLK1 (Homo sapiens) (UniProt O15075).
T1 sequence (whole entry): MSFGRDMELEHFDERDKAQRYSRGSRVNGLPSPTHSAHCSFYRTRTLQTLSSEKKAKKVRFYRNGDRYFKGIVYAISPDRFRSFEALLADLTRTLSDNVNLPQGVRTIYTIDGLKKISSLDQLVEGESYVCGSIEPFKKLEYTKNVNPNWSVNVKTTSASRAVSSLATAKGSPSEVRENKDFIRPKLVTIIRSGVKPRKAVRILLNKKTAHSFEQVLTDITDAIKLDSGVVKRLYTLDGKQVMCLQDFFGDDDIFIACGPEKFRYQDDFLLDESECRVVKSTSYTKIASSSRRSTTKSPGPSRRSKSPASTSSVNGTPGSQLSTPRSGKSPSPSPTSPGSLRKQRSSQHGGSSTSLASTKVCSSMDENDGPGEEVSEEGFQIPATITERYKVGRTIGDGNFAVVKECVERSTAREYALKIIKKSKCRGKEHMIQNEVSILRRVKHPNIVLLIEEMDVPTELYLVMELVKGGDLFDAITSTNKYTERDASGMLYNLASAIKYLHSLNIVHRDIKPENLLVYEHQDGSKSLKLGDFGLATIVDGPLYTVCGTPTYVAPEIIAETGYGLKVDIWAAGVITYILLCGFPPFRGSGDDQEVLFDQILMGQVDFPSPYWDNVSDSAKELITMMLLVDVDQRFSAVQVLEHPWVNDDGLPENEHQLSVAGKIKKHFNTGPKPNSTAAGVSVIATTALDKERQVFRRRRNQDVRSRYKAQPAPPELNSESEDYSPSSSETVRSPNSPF
Put plainly: Inhibition of DCAMKL1 (unknown origin) at 0.164 uM relative to control.

Test [4] addresses Ephrin type-A receptor 1 (Homo sapiens) (UniProt P21709). Put plainly: Inhibition of EPHA1 (unknown origin) at 0.164 uM relative to control.
In test [5] the test system is Tyrosine-protein kinase ABL1 (Homo sapiens), P00519 [G250E]. Nature of the test: Inhibition of ABL1 G250E mutant (unknown origin) at 0.164 uM relative to control.
Test [6] has as its target Tyrosine-protein kinase receptor TYRO3 (Homo sapiens) (UniProt Q06418). Nature of the test: Inhibition of TYRO3 (unknown origin) at 0.164 uM relative to control.
Test [7] concerns the target Aurora kinase C (Homo sapiens) (UniProt Q9UQB9). Put plainly: Inhibition of AurC (unknown origin) at 0.164 uM relative to control.
Test [8] deals with T2, MAP kinase-activated protein kinase 5 (Homo sapiens) (UniProt Q8IW41).
T2 sequence (whole entry): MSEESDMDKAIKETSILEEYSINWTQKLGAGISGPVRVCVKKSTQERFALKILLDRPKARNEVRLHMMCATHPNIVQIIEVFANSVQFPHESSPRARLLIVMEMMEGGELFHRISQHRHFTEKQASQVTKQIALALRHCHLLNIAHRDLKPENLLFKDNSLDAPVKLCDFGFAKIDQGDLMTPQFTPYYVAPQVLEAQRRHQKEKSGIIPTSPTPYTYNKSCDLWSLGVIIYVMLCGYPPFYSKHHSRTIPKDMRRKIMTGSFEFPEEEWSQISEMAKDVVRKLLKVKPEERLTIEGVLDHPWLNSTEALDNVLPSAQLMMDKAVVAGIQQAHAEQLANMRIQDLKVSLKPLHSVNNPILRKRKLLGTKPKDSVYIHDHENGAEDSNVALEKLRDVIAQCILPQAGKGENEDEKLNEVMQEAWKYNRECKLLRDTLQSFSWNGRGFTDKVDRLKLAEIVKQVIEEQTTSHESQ
Nature of the test: Inhibition of PRAK (unknown origin) at 0.164 uM relative to control.

Test [9] deals with Tyrosine-protein kinase Yes (Homo sapiens) (UniProt P07947). Put plainly: Inhibition of Yes (unknown origin) at 0.164 uM relative to control.
Test [10] addresses Mitogen-activated protein kinase 1 (Homo sapiens) (UniProt P28482). Nature of the test: Inhibition of Erk2 (unknown origin) at 0.164 uM relative to control.
Test [11] addresses PAS domain-containing serine/threonine-protein kinase (Homo sapiens) (UniProt Q96RG2). Nature of the test: Inhibition of PASK (unknown origin) at 0.45 uM relative to control.
The target of test [12] is Macrophage-stimulating protein receptor (Homo sapiens) (UniProt Q04912). Put plainly: Inhibition of MST1R (unknown origin) at 0.45 uM relative to control.
Test [13] deals with T3, Testis-specific serine/threonine-protein kinase 1 (Homo sapiens) (UniProt Q9BXA7).
T3 sequence (whole entry): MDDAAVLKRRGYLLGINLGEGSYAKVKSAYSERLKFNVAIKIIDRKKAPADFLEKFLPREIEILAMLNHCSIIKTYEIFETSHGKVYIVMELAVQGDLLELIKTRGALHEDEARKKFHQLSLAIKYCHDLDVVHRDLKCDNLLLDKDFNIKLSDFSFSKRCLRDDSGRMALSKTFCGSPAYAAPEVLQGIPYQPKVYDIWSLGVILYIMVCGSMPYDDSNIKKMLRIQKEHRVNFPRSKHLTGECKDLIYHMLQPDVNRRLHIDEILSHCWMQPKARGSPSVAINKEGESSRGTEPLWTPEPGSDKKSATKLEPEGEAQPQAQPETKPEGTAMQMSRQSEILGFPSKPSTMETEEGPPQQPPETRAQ
Nature of the test: Inhibition of TSSK1 (unknown origin) at 0.45 uM relative to control.

Test [14] has as its target Mitogen-activated protein kinase 1 (Homo sapiens) (UniProt P28482). Put plainly: Inhibition of Erk2 (unknown origin) at 0.19 uM relative to control.
Test [15] deals with CDK6/cyclin D3 (Homo sapiens) (UniProt P30281+Q00534). Put plainly: Inhibition of CDK6/CyclinD3 (unknown origin) at 0.19 uM relative to control. Type of test: protein-complex assay.
Test [16] concerns the target Insulin receptor (Homo sapiens) (UniProt P06213). Nature of the test: Inhibition of INSR (unknown origin) at 0.19 uM relative to control.
Test [17] deals with Tyrosine-protein kinase Mer (Homo sapiens) (UniProt Q12866). Put plainly: Inhibition of Mer (unknown origin) at 0.19 uM relative to control.
In test [18] the target is Proto-oncogene tyrosine-protein kinase Src (Homo sapiens) (UniProt P12931). Nature of the test: Inhibition of SRC (unknown origin) at 0.19 uM relative to control.
Test [19] concerns the target T3, Testis-specific serine/threonine-protein kinase 1 (Homo sapiens). Nature of the test: Inhibition of TSSK1 (unknown origin) at 0.19 uM relative to control.
Test [20] concerns the target Cyclin-dependent kinase 2 (Homo sapiens) (UniProt P24941). Put plainly: Inhibition of CDK2 (unknown origin) at 0.19 uM relative to control.
The target of test [21] is Mitogen-activated protein kinase 11 (Homo sapiens) (UniProt Q15759). Nature of the test: Inhibition of p38-beta2 (unknown origin) at 0.19 uM relative to control.

SMILES strings stand for the structures.

We go through three molecules from ChEMBL document CHEMBL4118098, “Discovery of DS28120313 as a potent orally active hepcidin production inhibitor: Design and optimization of novel 4,6-disubstituted indazole derivatives” (Bioorg Med Chem Lett, 2017).

Mitogen-activated protein kinase 1 (Homo sapiens), sequence (P28482 whole entry, the tested form may be a part): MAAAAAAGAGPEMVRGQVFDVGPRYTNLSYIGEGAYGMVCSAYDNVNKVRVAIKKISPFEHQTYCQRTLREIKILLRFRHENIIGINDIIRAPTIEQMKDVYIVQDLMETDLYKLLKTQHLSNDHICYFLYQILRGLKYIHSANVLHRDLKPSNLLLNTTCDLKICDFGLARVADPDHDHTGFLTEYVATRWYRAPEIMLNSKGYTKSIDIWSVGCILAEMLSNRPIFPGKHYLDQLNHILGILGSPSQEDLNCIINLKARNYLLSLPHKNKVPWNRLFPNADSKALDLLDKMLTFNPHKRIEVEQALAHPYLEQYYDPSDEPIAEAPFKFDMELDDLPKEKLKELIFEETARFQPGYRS
Mitogen-activated protein kinase 11 (Homo sapiens), sequence (Q15759 whole entry): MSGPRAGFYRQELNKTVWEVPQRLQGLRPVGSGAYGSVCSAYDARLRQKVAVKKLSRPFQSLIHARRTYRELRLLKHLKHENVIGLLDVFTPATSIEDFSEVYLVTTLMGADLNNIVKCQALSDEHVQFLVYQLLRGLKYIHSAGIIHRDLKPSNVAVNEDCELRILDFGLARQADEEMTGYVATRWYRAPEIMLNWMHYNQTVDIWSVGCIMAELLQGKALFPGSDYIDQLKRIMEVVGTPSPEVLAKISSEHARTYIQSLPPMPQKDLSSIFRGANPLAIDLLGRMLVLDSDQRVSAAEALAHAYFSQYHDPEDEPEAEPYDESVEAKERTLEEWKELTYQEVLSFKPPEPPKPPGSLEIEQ
Proto-oncogene tyrosine-protein kinase Src (Homo sapiens), sequence (P12931 2-536 limits assumed): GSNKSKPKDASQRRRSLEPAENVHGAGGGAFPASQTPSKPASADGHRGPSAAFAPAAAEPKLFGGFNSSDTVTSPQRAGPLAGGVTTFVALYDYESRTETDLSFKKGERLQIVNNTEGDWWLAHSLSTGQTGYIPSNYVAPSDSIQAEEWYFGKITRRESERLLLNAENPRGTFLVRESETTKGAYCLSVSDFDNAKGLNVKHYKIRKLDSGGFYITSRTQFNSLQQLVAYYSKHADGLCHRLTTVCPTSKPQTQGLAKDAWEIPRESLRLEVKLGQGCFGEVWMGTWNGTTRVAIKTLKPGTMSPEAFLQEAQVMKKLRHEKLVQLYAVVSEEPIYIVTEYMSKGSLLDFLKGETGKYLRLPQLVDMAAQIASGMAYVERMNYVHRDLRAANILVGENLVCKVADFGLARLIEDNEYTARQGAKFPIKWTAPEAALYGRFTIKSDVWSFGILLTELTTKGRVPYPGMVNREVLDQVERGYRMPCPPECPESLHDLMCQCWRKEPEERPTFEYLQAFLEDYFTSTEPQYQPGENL
Insulin receptor (Homo sapiens), sequence (P06213 28-758 limits assumed): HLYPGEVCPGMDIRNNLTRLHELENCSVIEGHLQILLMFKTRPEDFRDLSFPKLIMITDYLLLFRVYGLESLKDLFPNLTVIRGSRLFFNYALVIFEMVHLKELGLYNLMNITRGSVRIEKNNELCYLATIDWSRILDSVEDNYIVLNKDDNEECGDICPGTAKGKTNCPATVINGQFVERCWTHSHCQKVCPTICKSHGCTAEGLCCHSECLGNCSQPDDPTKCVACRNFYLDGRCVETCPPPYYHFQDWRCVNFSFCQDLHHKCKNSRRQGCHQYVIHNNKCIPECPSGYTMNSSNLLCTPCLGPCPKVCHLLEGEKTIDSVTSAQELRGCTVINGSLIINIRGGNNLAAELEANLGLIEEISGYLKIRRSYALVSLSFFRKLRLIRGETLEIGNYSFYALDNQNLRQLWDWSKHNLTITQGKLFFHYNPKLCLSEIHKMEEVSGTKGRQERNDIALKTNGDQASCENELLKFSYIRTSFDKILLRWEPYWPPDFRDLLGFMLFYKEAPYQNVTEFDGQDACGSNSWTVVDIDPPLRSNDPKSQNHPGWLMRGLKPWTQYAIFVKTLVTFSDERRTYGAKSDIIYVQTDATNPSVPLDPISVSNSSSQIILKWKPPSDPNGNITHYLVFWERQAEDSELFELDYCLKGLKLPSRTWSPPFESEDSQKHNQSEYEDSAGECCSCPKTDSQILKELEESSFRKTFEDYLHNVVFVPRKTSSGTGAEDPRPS
Insulin receptor (Homo sapiens), sequence (P06213 763-1382 limits assumed): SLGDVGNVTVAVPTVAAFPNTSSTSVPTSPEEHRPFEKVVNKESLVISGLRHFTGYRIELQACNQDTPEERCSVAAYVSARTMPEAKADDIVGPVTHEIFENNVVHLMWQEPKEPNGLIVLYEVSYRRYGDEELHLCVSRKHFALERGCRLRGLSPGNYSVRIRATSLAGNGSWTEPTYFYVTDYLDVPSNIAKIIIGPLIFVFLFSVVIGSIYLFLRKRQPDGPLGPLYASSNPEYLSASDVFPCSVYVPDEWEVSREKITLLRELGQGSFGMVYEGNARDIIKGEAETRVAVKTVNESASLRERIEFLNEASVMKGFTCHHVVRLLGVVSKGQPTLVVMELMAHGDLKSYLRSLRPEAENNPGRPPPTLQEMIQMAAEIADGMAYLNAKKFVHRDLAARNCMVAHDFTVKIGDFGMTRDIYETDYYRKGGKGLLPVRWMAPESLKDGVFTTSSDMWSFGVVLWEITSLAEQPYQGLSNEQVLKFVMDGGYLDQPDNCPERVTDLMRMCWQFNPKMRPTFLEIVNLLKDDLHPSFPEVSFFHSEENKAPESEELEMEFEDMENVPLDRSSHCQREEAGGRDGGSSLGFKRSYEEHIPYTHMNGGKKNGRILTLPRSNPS
Aurora kinase C (Homo sapiens), sequence (Q9UQB9 whole entry): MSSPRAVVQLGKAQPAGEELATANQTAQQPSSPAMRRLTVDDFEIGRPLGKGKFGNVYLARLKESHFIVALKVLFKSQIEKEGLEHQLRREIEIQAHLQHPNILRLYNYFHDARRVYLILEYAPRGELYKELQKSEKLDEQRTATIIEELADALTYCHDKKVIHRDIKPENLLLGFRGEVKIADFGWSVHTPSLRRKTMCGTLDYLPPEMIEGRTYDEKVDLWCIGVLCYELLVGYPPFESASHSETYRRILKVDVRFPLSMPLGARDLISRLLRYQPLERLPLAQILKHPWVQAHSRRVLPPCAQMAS
Tyrosine-protein kinase receptor TYRO3 (Homo sapiens), sequence (Q06418 whole entry): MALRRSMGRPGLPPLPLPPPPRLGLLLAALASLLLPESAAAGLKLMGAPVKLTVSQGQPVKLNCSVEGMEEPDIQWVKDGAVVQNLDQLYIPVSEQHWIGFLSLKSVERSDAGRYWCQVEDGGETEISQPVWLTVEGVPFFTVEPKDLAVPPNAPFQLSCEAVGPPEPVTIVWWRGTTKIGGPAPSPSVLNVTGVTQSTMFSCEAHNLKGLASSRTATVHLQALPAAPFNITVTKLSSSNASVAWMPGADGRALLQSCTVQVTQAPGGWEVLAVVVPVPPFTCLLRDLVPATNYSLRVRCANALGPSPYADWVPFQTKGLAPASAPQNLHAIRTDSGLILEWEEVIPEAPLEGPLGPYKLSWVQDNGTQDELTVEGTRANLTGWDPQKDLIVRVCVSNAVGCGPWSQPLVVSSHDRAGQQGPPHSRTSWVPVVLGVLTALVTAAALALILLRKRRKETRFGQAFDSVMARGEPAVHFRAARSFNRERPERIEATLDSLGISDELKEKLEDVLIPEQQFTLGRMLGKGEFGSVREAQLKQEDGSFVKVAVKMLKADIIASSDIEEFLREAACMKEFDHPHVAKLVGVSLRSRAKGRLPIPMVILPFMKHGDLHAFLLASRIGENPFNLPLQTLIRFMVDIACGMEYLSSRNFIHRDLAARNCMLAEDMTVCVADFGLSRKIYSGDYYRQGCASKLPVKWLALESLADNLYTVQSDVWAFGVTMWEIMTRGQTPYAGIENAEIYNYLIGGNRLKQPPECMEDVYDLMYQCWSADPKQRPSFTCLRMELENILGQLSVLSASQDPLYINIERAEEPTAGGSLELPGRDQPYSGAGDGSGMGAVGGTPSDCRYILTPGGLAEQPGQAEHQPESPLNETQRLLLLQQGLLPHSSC
Aurora kinase A (Homo sapiens), sequence (O14965 whole entry, canonical isoform): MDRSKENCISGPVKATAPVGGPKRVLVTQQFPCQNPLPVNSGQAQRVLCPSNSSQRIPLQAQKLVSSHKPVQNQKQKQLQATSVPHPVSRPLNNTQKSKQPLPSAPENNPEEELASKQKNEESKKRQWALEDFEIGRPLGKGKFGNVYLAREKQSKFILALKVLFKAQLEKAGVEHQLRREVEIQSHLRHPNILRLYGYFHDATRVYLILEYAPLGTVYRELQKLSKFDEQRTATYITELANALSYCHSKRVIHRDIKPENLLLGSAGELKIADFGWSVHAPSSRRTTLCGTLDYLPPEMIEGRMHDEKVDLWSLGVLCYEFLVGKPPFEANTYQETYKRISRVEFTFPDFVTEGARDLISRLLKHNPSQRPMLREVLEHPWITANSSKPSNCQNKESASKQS
Tyrosine-protein kinase Yes (Homo sapiens), sequence (P07947 2-543 limits assumed): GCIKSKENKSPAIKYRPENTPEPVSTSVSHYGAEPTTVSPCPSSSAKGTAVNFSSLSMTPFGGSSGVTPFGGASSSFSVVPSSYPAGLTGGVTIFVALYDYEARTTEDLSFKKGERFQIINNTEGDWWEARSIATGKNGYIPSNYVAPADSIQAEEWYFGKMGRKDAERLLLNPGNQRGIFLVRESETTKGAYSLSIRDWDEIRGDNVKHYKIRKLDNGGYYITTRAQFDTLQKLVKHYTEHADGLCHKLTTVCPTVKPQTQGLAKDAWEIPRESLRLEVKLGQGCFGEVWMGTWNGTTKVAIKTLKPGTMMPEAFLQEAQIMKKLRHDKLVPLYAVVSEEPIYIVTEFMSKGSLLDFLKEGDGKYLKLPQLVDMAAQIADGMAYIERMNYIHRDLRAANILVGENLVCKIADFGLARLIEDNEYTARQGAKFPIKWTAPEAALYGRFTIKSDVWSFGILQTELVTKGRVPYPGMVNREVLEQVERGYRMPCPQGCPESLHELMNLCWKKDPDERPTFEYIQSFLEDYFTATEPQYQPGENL

As usually defined, the inhibition is the relative decrease from the control value, in per cent. On to `COC(=O)Nc1cc(-c2c(C3CC3)n[nH]c2C)cc2[nH]ncc12`, for which the inhibition is 6.7% in [1]; -1.7% in [2]; -4.7% in test [3]; 1% in test [4]; 7.3% in [5]; 7.7% in test [6]. Besides, the inhibition was found to be 6.3% in test [7], 3.3% in test [8], 3% in test [9] and 9% in test [10].

As to `Cc1n[nH]c(C)c1-c1ccc2c(NC(=O)c3ccc(N4CCN(C)CC4)cc3)n[nH]c2c1`, the inhibition was -2% in test [11], -1% in test [12] and -1% in test [13].

Turning to `Cc1[nH]nc(C2CC2)c1-c1ccc2c(-c3ccc(N4CCN(C)CC4)nc3)n[nH]c2c1`, the inhibition was 4.7% in test [14]; -2% in [15]; 1.7% in test [16]; -4% in test [17]; 15.7% in test [18]; -6.3% in test [19]. In addition, the inhibition in test [20] and in test [21] was -1.7% each time.
